Test results from PMC6722883 (FEBS Open Bio, 2019).

Columns and labels:
[1] = target: T1, α3β4 nAChR expressed in Xenopus oocytes (Rattus norvegicus, UniProt P04757+P12392); experiment: cell-based; type: cell-based
T1 construct: expressed in transfected cells; host or cells: Xenopus oocytes injected with cRNA

[2] = buffer or solvent
[3] = target: human serum albumin (HSA) (Homo sapiens, UniProt P02768); settings: pH 7.2
[4] = pH 3
[5] = physchem; settings: not applicable
[6] = physchem; settings: buffer or solvent

T1 sequence (P04757 26-499 limits assumed): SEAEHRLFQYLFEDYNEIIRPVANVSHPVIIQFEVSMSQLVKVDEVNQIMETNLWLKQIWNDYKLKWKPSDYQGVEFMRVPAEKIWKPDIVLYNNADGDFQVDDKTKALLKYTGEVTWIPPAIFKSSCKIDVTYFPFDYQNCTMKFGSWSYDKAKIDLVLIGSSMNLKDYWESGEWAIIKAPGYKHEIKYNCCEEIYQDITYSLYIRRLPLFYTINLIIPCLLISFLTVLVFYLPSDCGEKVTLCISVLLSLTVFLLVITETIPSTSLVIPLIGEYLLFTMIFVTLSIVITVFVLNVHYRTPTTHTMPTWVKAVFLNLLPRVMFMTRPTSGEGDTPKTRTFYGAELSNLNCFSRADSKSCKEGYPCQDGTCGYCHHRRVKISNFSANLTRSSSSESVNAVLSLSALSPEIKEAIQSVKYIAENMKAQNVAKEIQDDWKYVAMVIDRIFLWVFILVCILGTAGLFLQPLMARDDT
T1 sequence (P12392 21-495 limits assumed): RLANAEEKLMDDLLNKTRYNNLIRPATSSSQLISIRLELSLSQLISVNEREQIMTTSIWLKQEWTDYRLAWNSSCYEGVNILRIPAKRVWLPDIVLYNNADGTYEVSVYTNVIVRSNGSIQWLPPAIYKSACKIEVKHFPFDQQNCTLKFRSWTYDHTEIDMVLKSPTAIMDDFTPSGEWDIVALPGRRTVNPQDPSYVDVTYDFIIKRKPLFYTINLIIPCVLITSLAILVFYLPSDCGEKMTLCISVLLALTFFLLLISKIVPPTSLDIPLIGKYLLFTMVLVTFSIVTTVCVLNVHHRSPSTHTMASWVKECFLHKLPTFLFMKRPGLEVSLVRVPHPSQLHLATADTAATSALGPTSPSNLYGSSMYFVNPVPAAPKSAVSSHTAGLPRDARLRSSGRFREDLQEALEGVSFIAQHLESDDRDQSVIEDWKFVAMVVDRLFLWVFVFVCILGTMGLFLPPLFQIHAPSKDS
human serum albumin (HSA), sequence (P02768 25-609 limits assumed): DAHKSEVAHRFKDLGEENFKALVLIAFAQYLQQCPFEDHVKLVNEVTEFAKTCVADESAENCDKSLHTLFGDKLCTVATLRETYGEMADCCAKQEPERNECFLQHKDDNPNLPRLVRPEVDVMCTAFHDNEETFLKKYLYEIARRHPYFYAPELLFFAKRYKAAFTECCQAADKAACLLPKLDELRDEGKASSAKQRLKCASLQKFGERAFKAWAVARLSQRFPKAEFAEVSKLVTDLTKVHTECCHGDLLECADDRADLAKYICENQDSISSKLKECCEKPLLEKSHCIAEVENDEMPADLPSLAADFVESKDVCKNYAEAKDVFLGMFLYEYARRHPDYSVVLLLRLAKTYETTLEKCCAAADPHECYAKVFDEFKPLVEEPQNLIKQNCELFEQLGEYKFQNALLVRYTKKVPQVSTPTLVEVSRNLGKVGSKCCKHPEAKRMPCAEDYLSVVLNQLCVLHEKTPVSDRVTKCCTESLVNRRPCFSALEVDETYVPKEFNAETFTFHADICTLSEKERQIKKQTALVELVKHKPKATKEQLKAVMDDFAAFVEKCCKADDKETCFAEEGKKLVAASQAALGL

| SMILES | Hill slope [1] | remaining at 8 h [2] [%] | Globular isomer remaining, % of the total [3] [%] | Degradation rate constant K obs (50 °C) [4] | Degradation rate constant K obs (60 °C) [4] | Degradation rate constant K obs (70 °C) [4] | Degradation rate constant K obs (80 °C) [4] | E a, activation energy [4] [kcal/mol] | t0.5, half-life period at 25 °C [4] [days] | t0.9, validity period at 25 °C [4] [days] | remaining at 168 h [5] [%] | remaining at 1 min [6] [%] | remaining at 16 h [6] [%] | IC50 [1] [nM] | Response at 100 nM [1] [%] |
| --- | --- | --- | --- | --- | --- | --- | --- | --- | --- | --- | --- | --- | --- | --- | --- |
| CC[C@H](C)[C@@H]1NC(=O)[C@@H]2CCCN2C(=O)[C@H](CO)NC(=O)[C@H](CCSC)NC(=O)[C@H](C)NC(=O)[C@H](CO)NC(=O)[C@@H]2CSSC[C@H](NC(=O)CN)C(=O)N[C@@H](CSSC[C@@H](C(N)=O)NC1=O)C(=O)N[C@@H](CO)C(=O)N[C@@H](Cc1cnc[nH]1)C(=O)N1CCC[C@H]1C(=O)N[C@@H](C(C)C)C(=O)N2 [TxID, α‐Conotoxin TxID] | 1.17 (0.87–1.46) | 36 | 75 | 1.01 × 10^−3 1/Mh | 2.42 × 10^−3 1/Mh | 5.54 × 10^−3 1/Mh | 2.02 × 10^−2 1/Mh | 27.9842 | 707 | 107 | 95 | 71 | 63 | – | – |
| CC[C@H](C)[C@@H]1NC(=O)[C@@H]2CCCN2C(=O)[C@H](CO)NC(=O)[C@H](CC[S+](C)[O-])NC(=O)[C@H](C)NC(=O)[C@H](CO)NC(=O)[C@@H]2CSSC[C@H](NC(=O)CN)C(=O)N[C@@H](CSSC[C@@H](C(N)=O)NC1=O)C(=O)N[C@@H](CO)C(=O)N[C@@H](Cc1c[nH]cn1)C(=O)N1CCC[C@H]1C(=O)N[C@@H](C(C)C)C(=O)N2 (stereo partly shown) [Product I] | 0.76 (0.65–0.86) | – | – | – | – | – | – | – | – | – | – | – | – | 503 | 15 |
